Reference: patent US20180371076A1, “MATERNAL TH17 CELLS AND PSYCHIATRIC DISORDERS” (New York University, priority 2017, published 2018)

How the values were obtained:
[1] = test system: offspring of pregnant mice (MIA mouse model); experiment: Marble burying test in adult offspring; type: in vivo
From the text: Maternal Immune Activation. Mice were mated overnight and females were checked daily for the presence of seminal plugs, noted as embryonic day 0.5 (E0.5). […] Each dam was returned to its cage and left undisturbed until the birth of its litter. All pups remained with the mother until weaning on postnatal day 21 (P21), at which time mice were group housed at maximum 5 per cage with same-sex littermates. […]
(§1) Marble burying test. […] At the end of a 15-min exploration period, mice were gently removed from the testing cages and the number of marbles buried was recorded. A marble burying index was scored as 1 for marbles covered >50% by bedding, 0.5 for ˜50% covered, or 0 for anything less. […]
as §1, with “test One week following the social approach task, male mice were acclimated for 0.5-1 h in separate clean holding cages.” for “test.”

IL-17a = IL-17a ELISA of maternal sera and placenta/decidua extract; type: in vivo, mouse; details: for maternal serum IL-17a: serum at E14.5-E15.5, vs PBS
Method: Cell preparation, Flow cytometry, ELISA. Embryos at each implantation site were dissected in ice-cold HBSS containing Ca^2+ and Mg^2+. Myometrium was first peeled off of the decidua and embryos were discarded. Dissected decidual and placental tissues were then minced and enzymatically dissociated in HBSS containing 0.28 Wunsch units (WU)/mL Liberase (Roche) and 30 μg/ml DNase I (Roche) for 30 min at 37° C. with intermittent mixing. Digested tissues were washed in PBS containing 5 mM EDTA and 5% fetal bovine serum and then incubated again in the same buffer for 15 min at 37° C. prior to filtration through a cell strainer. After separation on a discontinuous 40% & 80% Percoll gradient, the mononuclear cell fraction was treated with ACK lysis buffer (Lonza). Mononuclear cells (1×10^6 cells/mL) were stimulated with phorbol 12-myristate 13-acetate (PMA, 50 ng/mL; Sigma), ionomycin (500 ng/mL; Sigma) in T cell media: RPMI 1640 (Invitrogen) supplemented with 10% (v/v) heat-inactivated FBS (Hyclone), 50 U penicillin-streptomycin (Invitrogen), 2 mM glutamine, and 50 μM β-mercaptoethanol. Cell culture supernatant was used for ELISA analyses. For flow cytometry, cells were incubated for 5 h with PMA, ionomycin and GolgiStop (BD). Intracellular cytokine staining was performed according to the manufacturer's protocol (Cytofix/Cytoperm buffer set from BD with alexa647-conjugated anti-IL-17a (eBioscience) and PE-conjugated anti-IFN-γ). LSR II (BD Biosciences) and FlowJo software (Tree Star) were used for flow cytometry and analysis. Dead cells were excluded using the Live/Dead fixable aqua dead cell stain kit (Invitrogen). Placenta/decidua extract were prepared by homogenizing samples in Tissue Extraction Reagent I (Invitrogen, FN0071) in the presence of protease inhibitor cocktail (Roche, 11873580001) on ice using pestles. The homogenates were centrifuged at 4° C. at 13,000 rpm for 20 min, and the supernatants were aliquotted and frozen at −80° C. For ELISA with sera and placenta/decidua extract, IL-6 (Ebioscience), IL-17a (Biolgened), and IL-10 (BD) were measured according to the manufacturer's protocol.
Cell preparation, Flow cytometry, ELISA Embryos at each implantation site were dissected in ice-cold HBSS containing Ca2+ and Mg2+ (Gibco). Myometrium was first peeled off of the decidua and embryos were discarded. Dissected decidual and placental tissues were then minced and enzymatically dissociated in HBSS containing 0.28 Wunsch units (WU)/mL Liberase (Roche) and 30 μg/mL DNase I (Roche) for 30 min at 37° C. with intermittent mixing. Digested tissues were washed in PBS containing 5 mM EDTA and 5% fetal bovine serum and then incubated again in the same buffer for 15 min at 37° C. prior to filtration through a cell strainer. After separation on a discontinuous 40% & 80% Percoll gradient, the mononuclear cell fraction was treated with ACK lysis buffer (Lonza). Mononuclear cells (1×10^6 cells/mL) were cultured for 24 h with or without phorbol 12-myristate 13-acetate (PMA, 50 ng/mL; Sigma) and ionomycin (500 ng/mL; Sigma) in T cell media: RPMI 1640 (Invitrogen) supplemented with 10% (v/v) heat-inactivated FBS (Hyclone), 50 U penicillin-streptomycin (Invitrogen), 2 mM glutamine, and 50 μM β-mercaptoethanol. Cell culture supernatant was used for ELISA analyses. Unstimulated cells were used to prepare total RNA for qPCR analyses. For flow cytometry, cells were incubated for 5 h with PMA, ionomycin and GolgiStop (BD). […]

poly(I:C)
marble burying in adult offspring ([1]; poly(I:C)-injected vs PBS-injected mothers): enhanced marble burying
IL-17a in placenta/decidua extracts (IL-17a; PBS- or poly(I:C)-treated mothers): could not be detected
time until serum IL-17a is detected after injection (IL-17a; poly(I:C) at E12.5): 2 to 3 days
maternal serum IL-17a (IL-17a; poly(I:C) at E12.5): strong increase
maternal serum IL-17a (IL-17a; poly(I:C) at E12.5, listed as Poly(I:C)): further increase
serum IL-17a at later embryonic stages (IL-17a; poly(I:C) injected mothers): continue to rise until E19.5
serum IL-17a at E14.5 (IL-17a; poly(I:C) into pregnant dams lacking IL-6 (IL-6 KO)): failed to increase

B1: recombinant IL-6: carrier-free recombinant mouse IL-6 (R&D) (protein, UniProt P08505 25-211, looked up)
Interleukin-6: FPTSQVRRGDFTEDTTPNRPVYTTSQVGGLITHVLWEIVEMRKELCNGNSDCMNNDDALAENNLKLPEIQRNDGCYQTGYNQEICLLKISSGLLEYHSYLEYMKNNLKDNKKDKARVLQRDTETLIHIFNQEVKDLHKIVLPTPISNALLTDKLESQKEWLRTKTIQFILKSLEEFLKVTLRSTRQT
maternal serum IL-17a at E14.5 (IL-17a; injection into wild-type (WT) mothers): sufficient to induce IL-17a levels comparable to those of poly(I:C)-injected WT mothers

B2: recombinant IL-17a protein: Recombinant mouse IL-17a cytokine (R&D), injected into the fetal brain ventricle (protein, UniProt Q62386 26-158, looked up)
Interleukin-17A: AAIIPQSSACPNTEAKDFLQNVKVNLKVFNSLGAKVSSRRPSDYLNRSTSPWTLHRNEDPDRYPSVIWEAQCRHQRCVNAEGKLDHHMNSVLIQQEILVLKREPESCPFTFRVEKMLVGVGCTCVASIVRQAA
marble burying behavior ([1]; intra-ventricular injection at E14.5, compared with sham injection): increased marble burying behavior
